Data as given in ChEMBL document CHEMBL3351479, “Novel acylureidoindolin-2-one derivatives as dual Aurora B/FLT3 inhibitors for the treatment of acute myeloid leukemia” (Eur J Med Chem, 2014).

What was measured:
[1] = tested on: MV4-11; assay: Cytotoxicity against human MV4-11 cells assessed as cell viability at 1 uM after 48 hrs by MTT assay; type: functional; conditions: MV4-11, 48 h, read-out: Activity
[2] = tested on: MOLM-13; assay: Cytotoxicity against human MOLM13 cells assessed as cell viability after 48 hrs by MTT assay; type: functional, cell-based; conditions: MOLM-13, 48 h
[3] = tested on: THP-1; assay: Cytotoxicity against human THP1 cells assessed as cell viability at 1 uM after 48 hrs by MTT assay; type: functional; conditions: THP-1, 48 h, read-out: Activity
[4] = Cytotoxicity against human HL60 cells assessed as cell viability after 48 hrs by MTT assay; type: functional, cell-based; conditions: HL-60, 48 h
[5] = tested on: MOLM-13; assay: Cytotoxicity against human MOLM13 cells assessed as cell viability at 1 uM after 48 hrs by MTT assay; type: functional; conditions: MOLM-13, 48 h, read-out: Activity
[6] = tested on: MV4-11; assay: Cytotoxicity against human MV4-11 cells assessed as cell viability after 48 hrs by MTT assay; type: functional, cell-based
[7] = tested on: THP-1; assay: Cytotoxicity against human THP1 cells assessed as cell viability after 48 hrs by MTT assay; type: functional, cell-based
[8] = biological target: Receptor-type tyrosine-protein kinase FLT3 (Homo sapiens) (UniProt P36888); assay: Inhibition of FLT3 (unknown origin) using EAIYAAPFAKKK substrate at 1 uM
[9] = biological target: T1, Aurora kinase B (Homo sapiens, UniProt Q96GD4); assay: Inhibition of Aurora B (unknown origin) using HLRRASLG substrate at 1 uM
[10] = Cytotoxicity against human HL60 cells assessed as cell viability at 1 uM after 48 hrs by MTT assay; type: functional; conditions: HL-60, 48 h, read-out: Activity
[11] = biological target: T2, Receptor-type tyrosine-protein kinase FLT3 (Homo sapiens, UniProt P36888); assay: Inhibition of FLT3 (unknown origin) using EAIYAAPFAKKK substrate
T2 sequence (P36888 whole entry): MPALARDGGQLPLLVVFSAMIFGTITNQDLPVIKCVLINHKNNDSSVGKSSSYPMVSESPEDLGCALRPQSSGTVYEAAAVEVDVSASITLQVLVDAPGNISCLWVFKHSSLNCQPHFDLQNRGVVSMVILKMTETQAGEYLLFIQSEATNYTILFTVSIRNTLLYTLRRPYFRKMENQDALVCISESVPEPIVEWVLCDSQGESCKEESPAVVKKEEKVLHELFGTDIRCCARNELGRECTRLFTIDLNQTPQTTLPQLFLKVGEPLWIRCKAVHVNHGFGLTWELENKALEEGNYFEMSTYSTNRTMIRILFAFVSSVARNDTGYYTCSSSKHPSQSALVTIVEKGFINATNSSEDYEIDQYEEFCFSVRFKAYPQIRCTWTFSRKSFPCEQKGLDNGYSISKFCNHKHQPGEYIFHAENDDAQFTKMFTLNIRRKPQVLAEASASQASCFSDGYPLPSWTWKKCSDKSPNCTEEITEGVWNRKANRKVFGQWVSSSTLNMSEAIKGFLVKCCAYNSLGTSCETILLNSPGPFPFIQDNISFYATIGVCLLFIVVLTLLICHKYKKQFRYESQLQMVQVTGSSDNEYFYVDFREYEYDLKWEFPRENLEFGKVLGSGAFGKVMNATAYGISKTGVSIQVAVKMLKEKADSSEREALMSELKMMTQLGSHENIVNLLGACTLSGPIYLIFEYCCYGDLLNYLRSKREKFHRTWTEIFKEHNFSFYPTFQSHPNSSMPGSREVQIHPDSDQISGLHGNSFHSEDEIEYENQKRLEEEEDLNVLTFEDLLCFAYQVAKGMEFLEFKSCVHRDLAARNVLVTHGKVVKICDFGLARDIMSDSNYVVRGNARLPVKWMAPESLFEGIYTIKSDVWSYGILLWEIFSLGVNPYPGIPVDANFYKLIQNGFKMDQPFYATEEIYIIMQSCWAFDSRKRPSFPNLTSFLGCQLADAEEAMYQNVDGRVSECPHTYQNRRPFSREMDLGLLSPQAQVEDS

[12] = biological target: T1, Aurora kinase B; assay: Inhibition of Aurora B (unknown origin) using HLRRASLG substrate
[13] = Ratio of solubility in PBS to solubility in DMSO; type: physicochemical
[14] = Permeability coefficient of the compound at pH 7.4 by PAMPA-GIT assay; type: ADME; conditions: read-out: Peff

T1 sequence (Q96GD4 whole entry): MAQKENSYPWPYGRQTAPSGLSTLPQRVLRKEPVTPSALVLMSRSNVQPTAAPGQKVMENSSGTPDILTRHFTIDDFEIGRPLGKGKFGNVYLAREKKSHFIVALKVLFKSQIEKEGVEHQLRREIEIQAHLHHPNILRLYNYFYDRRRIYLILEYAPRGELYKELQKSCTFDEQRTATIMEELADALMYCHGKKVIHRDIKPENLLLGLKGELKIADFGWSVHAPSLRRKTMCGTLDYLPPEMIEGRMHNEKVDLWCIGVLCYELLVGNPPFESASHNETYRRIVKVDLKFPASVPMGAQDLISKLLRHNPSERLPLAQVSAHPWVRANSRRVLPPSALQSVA

SMILES	viability at 1 µM [1] [%]	IC50 [2] [nM]	viability at 1 µM [3] [%]	IC50 [4] [nM]	viability at 1 µM [5] [%]	IC50 ([6]; Homo sapiens, MV4-11, 48 h) [nM]	IC50 ([7]; Homo sapiens, THP-1, 48 h) [nM]	inhibition [8] [%]	inhibition [9] [%]	viability at 1 µM [10] [%]	IC50 [11] [nM]	IC50 [12] [nM]	Ratio [13]	IC50 ([6]; mv4-11) [nM]	IC50 ([7]; thp-1) [nM]	Papp [14] [×10⁻⁶ cm/s]
COc1ccc(C(=O)NC(=O)Nc2ccc3c(c2)NC(=O)/C3=C/c2cccc(C(=O)O)c2)cc1	57	291	71	> 500	53	> 500	> 500	21	73	59	–	–	–	–	–	–
COc1ccc(C(=O)NC(=O)Nc2ccc3c(c2)NC(=O)/C3=C/c2cccs2)cc1	–	> 500	–	300	–	292	375	–	–	–	> 1000	21.5	–	–	–	–
COc1ccc(C(=O)NC(=O)Nc2ccc3c(c2)NC(=O)/C3=C\c2[nH]c(C)c(C(=O)NCCN3CCCC3)c2C)c(F)c1.CS(=O)(=O)O	–	–	–	–	–	–	–	–	–	–	–	–	0.97	2	32.2	–
COc1ccc(C(=O)NC(=O)Nc2cc3c(cc2F)/C(=C/c2[nH]c(C)c(CCC(=O)O)c2C)C(=O)N3)cc1	–	30.1	–	28.8	–	26.1	64.7	–	–	–	> 1000	–	–	–	–	–
COc1cc(OC)cc(C(=O)NC(=O)Nc2ccc3c(c2)NC(=O)/C3=C\c2ccc[nH]2)c1	–	114	–	251	–	150	300	–	–	–	> 1000	–	–	–	–	–
CCOC(=O)CCc1c(C)[nH]c(/C=C2\C(=O)Nc3cc(NC(=O)NC(=O)c4ccc(OC)cc4F)ccc32)c1C	–	10.9	–	29.9	–	15.1	53.9	–	–	–	> 1000	–	–	–	–	–
COc1ccc(C(=O)NC(=O)Nc2ccc3c(c2)NC(=O)/C3=C\c2[nH]c(C)c(CCC(=O)O)c2C)cc1	–	5.2	–	6.4	–	5.3	52.8	–	–	–	–	–	0.57	–	–	–
COc1ccc(C(=O)NC(=O)Nc2ccc3c(c2)NC(=O)/C3=C/c2ccncc2)cc1	72	> 500	96	> 500	65	> 500	> 500	4	7	95	–	–	–	–	–	–
COc1ccc(C(=O)NC(=O)Nc2ccc3c(c2)NC(=O)/C3=C/c2ccco2)cc1	70	> 500	74	> 500	62	> 500	> 500	15	44	64	–	–	–	–	–	–
COc1ccc(C(=O)NC(=O)Nc2cc3c(cc2F)/C(=C/c2[nH]c(C)c(C(=O)O)c2C)C(=O)N3)cc1	–	25.3	–	32.2	–	34.6	81.2	–	–	–	–	–	0.58	–	–	2.46
COc1ccc(C(=O)NC(=O)Nc2ccc3c(c2)NC(=O)/C3=C/c2ccccc2)cc1	64	> 500	76	> 500	73	> 500	> 500	34	61	64	–	–	–	–	–	–
COc1ccc(C(=O)NC(=O)Nc2ccc3c(c2)NC(=O)/C3=C/c2ccc(Cl)c(Cl)c2)cc1	71	> 500	68	> 500	69	> 500	> 500	19	9	63	–	–	–	–	–	–
COc1ccc(C(=O)NC(=O)Nc2ccc3c(c2)NC(=O)/C3=C\c2[nH]c(C)c(C(=O)O)c2C)c(F)c1	–	5.2	–	6.4	–	5.3	79.5	–	–	–	–	–	0.58	–	–	2.49
COc1ccc(C(=O)NC(=O)Nc2ccc3c(c2)NC(=O)/C3=C/c2ccc(Cl)cc2)cc1	97	> 500	83	> 500	101	> 500	> 500	6	13	77	–	–	–	–	–	–
COc1ccc(C(=O)NC(=O)Nc2ccc3c(c2)NC(=O)/C3=C/c2ccc(O)cc2)cc1	–	351	54	485	–	377	> 500	–	63	–	> 1000	–	–	–	–	–
CCOC(=O)c1c(C)[nH]c(/C=C2\C(=O)Nc3cc(NC(=O)NC(=O)c4ccc(OC)cc4F)ccc32)c1C	–	9.8	–	13	–	11.3	74	–	–	–	> 1000	> 1000	–	–	–	–
COc1ccc(C(=O)NC(=O)Nc2ccc3c(c2)NC(=O)/C3=C/c2ccccn2)cc1	60	> 500	85	> 500	62	> 500	> 500	–	29	80	> 1000	–	–	–	–	–
COc1ccc(C(=O)NC(=O)Nc2ccc3c(c2)NC(=O)/C3=C\c2[nH]c(C)c(C(=O)O)c2C)cc1	–	9	–	15.8	–	12	78.4	–	–	–	–	–	0.32	–	–	0.23
O=C(NC(=O)c1ccccc1)Nc1ccc2c(c1)NC(=O)/C2=C\c1ccc[nH]1	–	238	–	250	–	240	293	–	–	–	> 1000	–	–	–	–	–
